From patent US20100280053A1, “CyclopropylmethYl-[7-(5,7-dimethyl-benzo[1,2,5]thiodiazol-4-yl)-2,5,6-trimethyl-7H-pyrrolo[2,3-d]pyrimidin-4-yl]-4-propyl-amine as a CRF Antagonist” (NOVARTIS AG, priority 2003, published 2010)

Target: T1, human recombinant CRF1 (Homo sapiens, UniProt P34998)
T1 construct: expressed in transfected cells
T1 sequence (P34998 24-415): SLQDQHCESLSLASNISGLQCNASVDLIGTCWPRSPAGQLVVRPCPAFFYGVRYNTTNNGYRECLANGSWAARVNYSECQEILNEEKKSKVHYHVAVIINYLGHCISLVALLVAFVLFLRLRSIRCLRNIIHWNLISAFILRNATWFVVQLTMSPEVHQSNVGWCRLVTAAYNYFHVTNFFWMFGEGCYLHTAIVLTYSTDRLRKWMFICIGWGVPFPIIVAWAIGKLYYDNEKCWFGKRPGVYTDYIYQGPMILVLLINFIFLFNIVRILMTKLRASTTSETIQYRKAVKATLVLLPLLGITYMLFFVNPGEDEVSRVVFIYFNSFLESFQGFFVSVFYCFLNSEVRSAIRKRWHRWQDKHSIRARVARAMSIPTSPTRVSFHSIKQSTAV
Assay: Inhibition of CRF-stimulated cyclic AMP accumulation in CHO cells expressing human recombinant CRF1
Format: cell-based
Settings: CRF concentration-response curves in presence of antagonist (1 nM-1 μM)
Protocol: Chinese hamster ovary (CHO) cells expressing human recombinant CRF1 (Chen et al., Proc Natl Acad Sci USA 90, 8967-8971, 1993) are propagated in Dulbecco's modified Eagle medium supplemented with 10% foetal calf serum, non-essential aminoacids, 100 U/ml penicillin, 100 mg/l streptomycin and 1 g/l geneticin (G418). For cyblic AMP determinations, cells are grown to confluence in 24-multiwell plates. Stimulation of cyclic AMP accumulation by CRF (human/rat form) is measured in intact cells, using the [^3H]adenine labelling technique, as described previously (Schoeffter et al., Neuropharmacology 36, 429-437, 1997).
Concentration-response curves for CRF are constructed in the presence of putative antagonists (1 nM-1 μM) or vehicle (dimethyl sulfoxide 1% vol). IC50 values of antagonists are calculated by fitting the percent inhibition of the effect of CRF (10 nM) by increasing concentrations of the antagonists. The fit is done using the nonlinear logistic function of the Origin software package (OriginLab Corporation, Northampton, Mass., USA).

CCCN(CC1CC1)c1nc(C)nc2c1c(C)c(C)n2-c1c(C)cc(C)c2nsnc12 [compound of formula A, Cyclopropylmethyl-[7-(5,7-dimethyl-benzo[1,2,5]thiadiazol-4-yl)-2,5,6-trimethyl-7H-pyrrolo[2,3-d]pyrimidin-4-yl]-propyl-amine]
mode of CRF1 receptor antagonism: non-competitive CRF1 receptor antagonist
